Where two headings read alike, the source gives them in different places.
How the values were obtained:
L540cy HL tumors = experiment: Antitumor activity on subcutaneous L540cy HL tumors in SCID mice; format: in vivo; details: for Median TGD (FIG. 6) (days to triple): Vinblastine q4dx3
Experimental: (§1) SCID mice were implanted with L540cy HL cells in the right flank.
as §1
SCID mice were implanted with L540cy HL cells in the right flank. Groups of mice (5-10/group) were untreated or received cAC10-vcMMAE (1 mg/kg, q4dx3, ip) alone, Gemcitabine (120 mg/kg, q4dx3, ip) alone, or combination treatment with cAC10-vcMMAE and Gemcitabine when tumor sizes averaged approximately 100 mm^3.
SCID mice were implanted with L540cy HL cells in the right flank. Groups of mice (5-10/group) were untreated or received cAC10-vcMMAE (1 mg/kg, q4dx3, ip) alone, Gemcitabine (120 mg/kg, q4dx3, ip) alone, or combination treatment with cAC10-vcMMAE and Gemcitabine, when tumor sizes averaged approximately 300 mm^3.
as §1, §1
(§2) SCID mice were implanted with L540cy HL cells in the right flank. Groups of mice (5-10/group) were untreated or received cAC10-vcMMAE (1 mg/kg, q4dx3, ip) alone, Vinorelbine alone (4 mg/kg q5dx3), or combination treatment cAC10-vcMMAE and vinorelbine when tumor sizes averaged approximately 100 mm^3.
as §2
SCID mice were implanted with L540cy HL cells in the right flank. Groups of mice (5-10/group) were untreated or received cAC10-vcMMAE (1 mg/kg, q4dx3, ip) alone, Doxorubicin alone (3 mg/kg q4dx3), or combination treatment with cAC10-vcMMAE and doxorubicin when tumor sizes averaged approximately 100 mm^3.
SCID mice were implanted with L540cy HL cells in the right flank. Groups of mice (5-10/group) were untreated or received cAC10-vcMMAE (1 mg/kg, q4dx3, ip) alone, Doxorubicin alone (1.5 mg/kg q4dx3), or combination treatment with cAC10-vcMMAE and doxorubicin when tumor sizes averaged approximately 100 mm^3.
SCID mice were implanted with L540cy HL cells in the right flank. Groups of mice (7-10/group) were untreated or received cAC10-vcMMAE (1 mg/kg, q4dx3, ip) alone, Vinblastine alone ([…] q4dx3), or combination treatment with cAC10-vcMMAE and vinblastine when tumor sizes averaged approximately 300 mm^3.
SCID mice were implanted with L540cy HL cells in the right flank. Groups of mice (6-8/group) were untreated or received cAC10-vcMMAE (1 mg/kg, q4dx3, ip) alone, Gemcitabine (120 mg/kg, q4dx3, ip) alone, or combination treatment with cAC10-vcMMAE and Gemcitabine when tumor sizes averaged approximately 100 mm^3.
as §1

[1] = tested on: relapsed or refractory HL; details: cited from earlier work
[2] = FIG. 6, ~300 mm^3, cAC10-vcMMAE 1 mg/kg q4dx3 ip, Vinblastine 0/1 mg/kg q4dx3
[3] = FIG. 6, ~300 mm^3, cAC10-vcMMAE 1 mg/kg q4dx3 ip
[4] = ~100 mm^3, cAC10-vcMMAE 1 mg/kg q4dx3 ip, Gemcitabine 120 mg/kg q4dx3 ip
[5] = ~300 mm^3, cAC10-vcMMAE 1 mg/kg q4dx3 ip, Gemcitabine 120 mg/kg q4dx3 ip
[6] = FIG. 7, second study, ~100 mm^3, cAC10-vcMMAE 1 mg/kg q4dx3 ip, Gemcitabine 120 mg/kg q4dx3 ip
[7] = FIG. 5A, first experiment, ~100 mm^3, cAC10-vcMMAE 1 mg/kg q4dx3 ip, Doxorubicin 3 mg/kg q4dx3
[8] = FIG. 5B, second experiment, ~100 mm^3, cAC10-vcMMAE 1 mg/kg q4dx3 ip, Doxorubicin 1.5 mg/kg q4dx3
[9] = FIG. 4A, first experiment, ~100 mm^3, cAC10-vcMMAE 1 mg/kg q4dx3 ip, Vinorelbine 4 mg/kg q5dx3
[10] = FIG. 4B, second experiment, ~100 mm^3, cAC10-vcMMAE 1 mg/kg q4dx3 ip, Vinorelbine 4 mg/kg q5dx3

| Compound | durable responses, animals/group (L540cy HL tumors; [2]) | Median TGD (FIG. 6) (days to triple) (L540cy HL tumors; [3]) | Median TGD (FIG. 2A) (days to quadruple) (L540cy HL tumors; [4]) | Median TGD (FIG. 2B) (days to triplicate) (L540cy HL tumors; [5]) | Median TGD (FIG. 7) (days to quadruple) (L540cy HL tumors; [6]) | durable responses, animals/group (L540cy HL tumors; [6]) | Median TGD (FIG. 5A) (days to quadruple) (L540cy HL tumors; [7]) | durable responses, animals/group (L540cy HL tumors; [7]) | Median TGD (FIG. 5B) (days to quadruple) (L540cy HL tumors; [8]) | durable responses, animals/group (L540cy HL tumors; [8]) | Median TGD (FIG. 4A) (days to quadruple) (L540cy HL tumors; [9]) | durable responses, animals/group (L540cy HL tumors; [9]) | Median TGD (FIG. 4B) (days to quadruple) (L540cy HL tumors; [10]) | durable responses, animals/group (L540cy HL tumors; [10]) | further results |
| --- | --- | --- | --- | --- | --- | --- | --- | --- | --- | --- | --- | --- | --- | --- | --- |
| CC[C@]1(O)C[C@@H]2CN(CCc3c([nH]c4ccccc34)[C@@](C(=O)OC)(c3cc4c(cc3OC)N(C)[C@H]3[C@@](O)(C(=O)OC)[C@H](OC(C)=O)[C@]5(CC)C=CCN6CC[C@]43[C@@H]65)C2)C1 [Vinblastine, reference compound] | 0/10 | 30.93 days |  |  |  |  |  |  |  |  |  |  |  |  |  |
| Nc1ccn([C@@H]2O[C@H](CO)[C@@H](O)C2(F)F)c(=O)n1 [Gemcitabine, 4-amino-1-[(2R,4R,5R)-3,3-difluoro-4-hydroxy-5-(hydroxymethyl)oxolan-2-yl]pyrimidin-2-one, reference compound] |  |  | 5 days | 15.5 days | 42 days | 1/6 |  |  |  |  |  |  |  |  | response rates ([1]; relapsed/refractory setting, majority of patients with prior autologous or allogeneic transplant, Venkatesh et al. 2004): 22%; response rates ([1]; transplant naive setting, relapsed or refractory HL patients, Santoro et al. 2000): 39%; durable responses, animals/group (L540cy HL tumors; FIG. 8, at day 51, experiment not yet complete, ~100 mm^3, cAC10-mcMMAF 1 mg/kg q4dx3 ip, Gemcitabine 120 mg/kg q4dx3 ip): 0/10 |
| COc1cccc2c1C(=O)c1c(O)c3c(c(O)c1C2=O)C[C@@](O)(C(=O)CO)C[C@@H]3O[C@H]1C[C@H](N)[C@H](O)[C@H](C)O1 [Doxorubicin, reference compound] |  |  |  |  |  |  | 32 days | 0/3 | 27.2 days | 0/9 |  |  |  |  |  |
| CCC1=C[C@@H]2CN(C1)Cc1c([nH]c3ccccc13)[C@@](C(=O)OC)(c1cc3c(cc1OC)N(C)[C@H]1[C@@](O)(C(=O)OC)[C@H](OC(C)=O)[C@]4(CC)C=CCN5CC[C@]31[C@@H]54)C2 [Vinorelbine, reference compound] |  |  |  |  |  |  |  |  |  |  | 28 days | 0/6 | 34.4 days | 0/9 |  |
| cAC10-vcMMAE: antibody-drug conjugate: chimeric AC10 anti-CD30 antibody linked via MC-val-cit-PAB to monomethyl auristatin E | 1/8 | 45.9 days | 34 days | 39.5 days | 78.01 days | 1/7 | 64 days | 1/6 | 78.8 days | 4/10 | 64 days | 1/6 | 78.8 days | 4/10 | effect on tumors compared to control treatment (L540cy HL tumors; FIG. 1A, monotherapy, tumors eventually progressed): induced tumor regressions and significant tumor growth delays; Median TGD (FIG. 1A) (days to quadruple) (L540cy HL tumors; FIG. 1A, treatment started at tumor size ~100 mm^3, cAC10-vcMMAE 1 mg/kg q4dx3 ip, ABVD: Adriamycin 1 mg/kg q4dx3 iv, Bleomycin 7.5 u/kg q4dx3 ip, Vinblastine 0.015 mg/kg q4dx3 ip, Dacarbazine 20 mg/kg q3dx4 ip): 63 days; durable responses (durable tumor regressions; absence of palpable tumor), animals/group (L540cy HL tumors; FIG. 1A, ~100 mm^3, cAC10-vcMMAE 1 mg/kg q4dx3 ip, ABVD full dose): 4/9; Median TGD (FIG. 1B) (days to triple) (L540cy HL tumors; FIG. 1B, treatment started at ~300 mm^3, cAC10-vcMMAE 1 mg/kg q4dx3 ip, ABVD: Adriamycin 0.75 mg/kg q4dx3 iv, Bleomycin 6 u/kg q4dx3 ip, Vinblastine 0.01 mg/kg q4dx3 ip, Dacarbazine 15 mg/kg q3dx4 ip): 41 days; durable responses, animals/group (L540cy HL tumors; FIG. 1B, ~300 mm^3, cAC10-vcMMAE 1 mg/kg q4dx3 ip, ABVD dosages reduced by 25%): 2/10; durable responses, animals/group (L540cy HL tumors; FIG. 3A, first experiment, ~100 mm^3, cAC10-vcMMAE 1 mg/kg q4dx3 ip, GVD): 4/9; Median TGD (FIG. 3A) (days to quadruple) (L540cy HL tumors; FIG. 3A, first experiment, ~100 mm^3, cAC10-vcMMAE 1 mg/kg q4dx3 ip, GVD: gemcitabine 60 mg/kg q4dx3 ip, vinorelbine 2 mg/kg q5dx3 ip, doxorubicin 1.5 mg/kg q4dx3 iv): 84.6 days; durable responses, animals/group (L540cy HL tumors; FIG. 3B, second experiment, ~100 mm^3, cAC10-vcMMAE 1 mg/kg q4dx3 ip, GVD): 0/7; Median TGD (FIG. 3B) (days to quadruple) (L540cy HL tumors; FIG. 3B, second experiment, ~100 mm^3, cAC10-vcMMAE 1 mg/kg q4dx3 ip, GVD: gemcitabine 60 mg/kg q4dx3 ip, vinorelbine 2 mg/kg q5dx3 ip, doxorubicin 1.5 mg/kg q4dx3 iv): 54.7 days |
